The text below walks through data of US6288091A, “Antiherpes virus compounds and methods for their preparation and use” (Boehringer Ingelheim Ltd., priority 1999, dated 2001).

The structures appear in SMILES notation. Like-named read-outs stand apart in the source and are kept apart here.

Experiment [1] relates to HCMV (strain AD169). The experiment in a line: Inhibition of HCMV replication, ELISA assay (Hs-68 cells). It counts as cell-based, Human Cytomegalovirus (HCMV). As to conditions: read-out: ELISA CMV EC50. The procedure: C) Inhibition of Human Cytomegalovirus (HCMV) Replication
The effect of compounds on the replication of HCMV has been measured by using an ELISA-based assay (ELISA) and a plaque reduction assay (PRA).
Hs-68 cells (ATCC # CRL 1635) were seeded in 96 well microtiter plates at 10,000 cells/well in 100 μL of DMEM medium (Gibco Canada Inc.) supplemented with 10% fetal bovine serum (FBS, Gibco Canada Inc.). The plates were incubated for 3 days at 37° to allow the cells to reach 80-90% confluency prior to the assay.
The medium was removed from wells by aspiration. The cells then were infected at a multiplicity of infection (MOI) of 0.01 PFU/cell with 50 μL of HCMV (strain AD169, ATCC VR-538) in DMEM medium supplemented with 5% heat inactivated FBS (assay medium). The virus was allowed to adsorb to cells for 2 h at 37°. Following viral adsorption, the medium was removed from the wells by aspiration. The cells were washed twice with 200 μL of assay medium to remove unabsorbed virus. The cells were then incubated with or without 100 μL of appropriate concentrations of test reagent in assay medium. After 8 days of incubation at 37°, the extent of viral replication was determined by an ELISA assay which detects the late structural protein p28 of HCMV.
Eight days after infection, the medium was aspirated from the wells. Non-specific binding sites were blocked by adding 200 μL of phosphate buffered saline containing 1% (w/v) bovine serum albumin (blocking buffer) to each well and incubating the plates for 30 min at room temperature. After removal of the blocking buffer by aspiration, the cells were fixed with 100 μL of cold ethanol-acetone solution (95:5) per well. The plates were placed at -20° for 30 min. The plates were washed 4 times with phosphate buffered saline containing 0.05% (v/v) polyoxyethylene sorbitan monolaurate (Tween®). Thereafter, 100 μL of mAb UL99 (Advanced Biotechnologies Inc., #13-130-100) recognizing HCMV protein p28 was added to each wells and plates were incubated for 2 h at room temperature. The plates were washed four times with 200 μL of the above-noted phosphate buffered saline/Tween-20® solution. The cells were then incubated with 100 μL of sheep anti-mouse IgGγ horseradish peroxidase conjugated for 2 h at room temperature. The plates were then washed four times with 200 μL of above-noted phosphate buffered saline/Tween-20® solution. Thereafter, 100 μL of ortho phenylenediamine dihydrochloride (OPD, Gibco Canada Inc.) solution was added to each well and the plates were agitated on a microplate shaker for 30 min in the dark. Color development was monitored at 450 nm using a microplate spectrophotometer.
The SAS program was used to calculate the % inhibition of viral replication and to generate EC50 values.
The EC50 values obtained according to this assay method for certain thiazolylphenyl derivatives of this invention are listed in the following tables under the heading ELISA CMV.

Experiment [2] has as its system HSV-1 strain F or KOS. The experiment in a line: Inhibition of herpes simplex virus (HSV-1) replication in cell culture (BHK-21 cells, glycoprotein C ELISA). It counts as cell-based. Put shortly: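 BHK-21 clone 13 cells infected with HSV-1 F or KOS at MOI 0.05 PFU/cell for 1 h at 37°, washed, then treated with compound in α-MEM/2% FBS for 24 h. Late glycoprotein C quantified by ELISA (mAb C11, HRP/OPD, 450 nm); EC50 from % inhibition.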

Experiment [3] deals with T1, HSV-1 helicase-primase (Human herpesvirus 1, UniProt P10189+P10236).
T1 construct: made in house; host or cells: Sf21 insect cells triply infected with recombinant baculoviruses (UL5, UL8, UL52)
The experiment in a line: HSV-1 DNA-dependent ATPase assay (inhibition of HSV-1 helicase-primase). Format: biochemical. Put shortly:
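Holoenzyme (UL5/UL8/UL52) expressed in baculovirus-infected Sf21 cells and purified, used at 3 μg/mL with 4 mM ATP and 25 μM primed M13 ssDNA in HEPES pH 7.5, 5.5 mM MgCl2, 3.3% DMSO. Incubated 20 min at 34°. Released phosphate read by malachite green at 650 nm, and activity taken from net absorbance with versus without inhibitor.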

Where [4] appears, read: Human betaherpesvirus 5, AD169, Hs68, Group 1 Table 3 entries.
[5] abbreviates: Human alphaherpesvirus 1, BHK-21, Group 1 Table 3 entries.
Setting [6] is: Human betaherpesvirus 5, AD169, Hs68, Group 1 Table 5 entries.
Where [7] appears, read: Human alphaherpesvirus 1, BHK-21, Group 1 Table 5 entries.
Where [8] appears, read: Human betaherpesvirus 5, AD169, Hs68, Group 1 Table 1 entries.
[9] abbreviates: Human alphaherpesvirus 1, BHK-21, Group 1 Table 1 entries.

T1 sequence (P10192 whole entry): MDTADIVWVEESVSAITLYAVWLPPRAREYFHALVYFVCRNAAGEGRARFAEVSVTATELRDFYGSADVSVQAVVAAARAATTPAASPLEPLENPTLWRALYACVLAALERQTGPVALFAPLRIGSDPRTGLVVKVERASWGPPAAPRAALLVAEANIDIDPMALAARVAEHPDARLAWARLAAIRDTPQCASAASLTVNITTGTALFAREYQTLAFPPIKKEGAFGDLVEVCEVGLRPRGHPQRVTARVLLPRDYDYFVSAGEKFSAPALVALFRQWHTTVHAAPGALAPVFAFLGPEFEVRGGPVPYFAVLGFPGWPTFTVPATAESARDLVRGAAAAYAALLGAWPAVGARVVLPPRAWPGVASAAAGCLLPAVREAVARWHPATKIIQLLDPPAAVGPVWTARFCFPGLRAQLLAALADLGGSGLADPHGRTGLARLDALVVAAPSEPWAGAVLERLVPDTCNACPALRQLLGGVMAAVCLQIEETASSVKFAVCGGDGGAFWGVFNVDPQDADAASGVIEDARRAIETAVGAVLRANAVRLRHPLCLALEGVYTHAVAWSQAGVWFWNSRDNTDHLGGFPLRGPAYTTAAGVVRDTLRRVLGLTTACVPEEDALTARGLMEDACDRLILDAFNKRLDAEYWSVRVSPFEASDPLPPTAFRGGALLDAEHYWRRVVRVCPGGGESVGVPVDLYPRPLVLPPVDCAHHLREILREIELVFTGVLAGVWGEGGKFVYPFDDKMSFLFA
T1 sequence (P10236 whole entry): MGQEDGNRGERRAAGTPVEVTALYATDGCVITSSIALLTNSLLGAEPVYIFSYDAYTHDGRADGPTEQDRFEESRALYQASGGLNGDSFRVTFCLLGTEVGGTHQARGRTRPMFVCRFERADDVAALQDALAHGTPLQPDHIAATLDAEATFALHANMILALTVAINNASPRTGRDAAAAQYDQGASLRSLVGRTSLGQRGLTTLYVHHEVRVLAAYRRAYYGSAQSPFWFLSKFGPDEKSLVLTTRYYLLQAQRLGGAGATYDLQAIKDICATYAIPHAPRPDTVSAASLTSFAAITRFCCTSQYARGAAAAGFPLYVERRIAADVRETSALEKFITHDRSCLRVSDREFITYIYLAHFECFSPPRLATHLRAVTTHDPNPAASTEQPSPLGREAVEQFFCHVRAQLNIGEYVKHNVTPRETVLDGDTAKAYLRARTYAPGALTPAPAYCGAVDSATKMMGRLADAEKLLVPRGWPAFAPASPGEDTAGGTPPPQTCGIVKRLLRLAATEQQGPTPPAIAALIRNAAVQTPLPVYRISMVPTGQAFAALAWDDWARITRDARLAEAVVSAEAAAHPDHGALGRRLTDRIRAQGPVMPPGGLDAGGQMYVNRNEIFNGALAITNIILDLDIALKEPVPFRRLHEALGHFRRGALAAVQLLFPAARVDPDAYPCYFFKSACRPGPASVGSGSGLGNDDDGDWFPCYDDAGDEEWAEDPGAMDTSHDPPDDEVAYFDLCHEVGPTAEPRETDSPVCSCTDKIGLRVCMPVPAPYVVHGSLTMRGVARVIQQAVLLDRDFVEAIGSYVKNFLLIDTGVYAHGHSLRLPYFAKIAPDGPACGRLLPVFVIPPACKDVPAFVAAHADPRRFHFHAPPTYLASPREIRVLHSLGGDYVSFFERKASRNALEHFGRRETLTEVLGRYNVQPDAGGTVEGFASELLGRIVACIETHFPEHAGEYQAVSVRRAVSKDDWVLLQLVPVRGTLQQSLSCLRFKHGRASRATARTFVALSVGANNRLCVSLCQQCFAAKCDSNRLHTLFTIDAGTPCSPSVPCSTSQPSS
T1 sequence (P10189 whole entry): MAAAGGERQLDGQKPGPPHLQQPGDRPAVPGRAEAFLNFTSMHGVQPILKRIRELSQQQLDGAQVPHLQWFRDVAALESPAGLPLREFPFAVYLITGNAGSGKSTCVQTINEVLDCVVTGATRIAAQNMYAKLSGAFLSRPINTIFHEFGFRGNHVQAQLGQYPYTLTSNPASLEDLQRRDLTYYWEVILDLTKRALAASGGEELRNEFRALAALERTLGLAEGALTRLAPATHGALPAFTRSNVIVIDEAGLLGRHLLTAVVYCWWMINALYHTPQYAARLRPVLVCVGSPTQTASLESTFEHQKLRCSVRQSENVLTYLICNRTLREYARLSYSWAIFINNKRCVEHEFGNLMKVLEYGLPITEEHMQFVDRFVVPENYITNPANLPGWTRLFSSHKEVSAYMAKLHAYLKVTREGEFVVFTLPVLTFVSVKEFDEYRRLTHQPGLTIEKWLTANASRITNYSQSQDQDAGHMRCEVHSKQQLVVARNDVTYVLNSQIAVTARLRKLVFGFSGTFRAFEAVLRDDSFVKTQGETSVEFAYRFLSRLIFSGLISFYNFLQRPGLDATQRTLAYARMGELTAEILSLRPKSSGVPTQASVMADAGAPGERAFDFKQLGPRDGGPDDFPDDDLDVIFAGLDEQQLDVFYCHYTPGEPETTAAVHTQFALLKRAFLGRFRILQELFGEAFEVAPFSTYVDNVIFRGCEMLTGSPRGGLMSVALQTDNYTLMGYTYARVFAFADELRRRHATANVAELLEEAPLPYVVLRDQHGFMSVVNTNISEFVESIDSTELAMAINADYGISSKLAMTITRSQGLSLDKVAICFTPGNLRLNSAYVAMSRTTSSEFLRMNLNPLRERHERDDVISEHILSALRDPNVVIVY

Turning to `CNc1nc(-c2ccc(NC(=O)CN(Cc3ccccc3)C(=O)OC(C)(C)C)cc2)cs1` [Example 10], the EC50 is 1.1 µM in experiment [1] (setting [4]) and 8 nM in experiment [2] (setting [5]). Also, in experiment [3] (Group 1 Table 3 entries), the concentration for half-maximal inhibition (IC50) was found to be 310 nM.

For the molecule `CN(C)c1nc(-c2ccc(NC(=O)CNCc3ccccc3)cc2)cs1` [Example 12], the 50% effective concentration (EC50) was above 79 µM in experiment [1] (setting [4]) and 21000 nM in experiment [2] (setting [5]). In addition, the IC50 in experiment [3] (Group 1 Table 3 entries) was above 50000 nM.

On to `C[C@H](NCc1ccccc1)C(=O)Nc1ccc(-c2csc(N)n2)cc1` [Example 12], for which the EC50 in experiment [1] (setting [6]) amounted to 4.1 µM; in experiment [2] (setting [7]), 820 nM. Moreover, in experiment [3] (Group 1 Table 5 entries), the IC50 amounted to 1300 nM.

Consider `CN(C)c1nc(-c2ccc(NC(=O)CNCC3CCCCC3)cc2)cs1` [Example 13], for which the results for the EC50 in experiment [1] (setting [4]) and in experiment [2] (setting [5]) were 36 µM and above 4000 nM, respectively. In experiment [3] (Group 1 Table 3 entries), this molecule came in with an IC50 above 50000 nM.

Take `C[C@@H](NCc1ccccc1)C(=O)Nc1ccc(-c2csc(N)n2)cc1` [Example 13]: the EC50 in experiment [1] (setting [6]) worked out at 14 µM; in experiment [2] (setting [7]), 2000 nM. Moreover, in experiment [3] (Group 1 Table 5 entries), 2000 nM corresponded to half-maximal inhibition (IC50).

On to `Nc1nc(-c2ccc(NC(=O)CNCc3cccs3)cc2)cs1` [Example 13], for which the figures for the EC50 in experiment [1] (setting [8]) and in experiment [2] (setting [9]) were 8.3 µM and 3700 nM, respectively. In experiment [3] (Group 1 Table 1 entries), this molecule showed an IC50 of 3800 nM.

As for `CN(C)c1nc(-c2ccc(NC(=O)CN(Cc3ccccc3)C(=O)c3ccncc3)cc2)cs1` [Example 14], the 50% effective concentration (EC50) worked out at 20 µM in experiment [1] (setting [4]) and 500 nM in experiment [2] (setting [5]). The same molecule returned an IC50 in experiment [3] (Group 1 Table 3 entries) above 50000 nM.

Consider `C[C@@H](C(=O)Nc1ccc(-c2csc(N)n2)cc1)N(Cc1ccccc1)C(=O)C1CCCCC1` [Example 14], for which the values for the EC50 in experiment [1] (setting [6]) and in experiment [2] (setting [7]) were 10 µM and 9 nM, respectively. This molecule also gave a half-inhibitory concentration (IC50) in experiment [3] (Group 1 Table 5 entries) of 110 nM.

With `Nc1nc(-c2ccc(NC(=O)CNCCN3CCOCC3)cc2)cs1` [Example 14], the figures for the 50% effective concentration (EC50) in experiment [1] (setting [8]) and in experiment [2] (setting [9]) were 67 µM and 3200 nM, respectively. Moreover, the IC50 in experiment [3] (Group 1 Table 1 entries) was 7700 nM.

With `C[C@H](C(=O)Nc1ccc(-c2csc(N)n2)cc1)N(Cc1ccccc1)C(=O)C1CCCCC1` [Example 15], the EC50 in experiment [1] (setting [6]) was found to be 3.2 µM; in experiment [2] (setting [7]), 6 nM. In experiment [3] (Group 1 Table 5 entries), this molecule yielded a concentration for half-maximal inhibition (IC50) of 41 nM.

As to `CN(C)c1nc(-c2ccc(NC(=O)CN(Cc3ccccc3)C(=O)OC(C)(C)C)cc2)cs1` [Example 16], the EC50 in experiment [1] (setting [4]) stood at 4.8 µM; in experiment [2] (setting [5]), 9 nM. The same molecule yielded a half-inhibitory concentration (IC50) in experiment [3] (Group 1 Table 3 entries) above 50000 nM.

`C[C@@H](C(=O)Nc1ccc(-c2csc(N)n2)cc1)N(Cc1ccccc1)C(=O)OC(C)(C)C` [Example 16]: the 50% effective concentration (EC50) in experiment [1] (setting [6]) came to 2.8 µM; in experiment [2] (setting [7]), 79 nM. Also, in experiment [3] (Group 1 Table 5 entries), the IC50 turned out to be 460 nM.

Turning to `CN(C)c1nc(-c2ccc(NC(=O)CN(CC3CCCCC3)C(=O)OC(C)(C)C)cc2)cs1` [Example 17], the values for the concentration for a half-maximal effect (EC50) in experiment [1] (setting [4]) and in experiment [2] (setting [5]) were 4 µM and above 8000 nM, respectively. In addition, in experiment [3] (Group 1 Table 3 entries), the IC50 is above 50000 nM.

On to `C[C@H](C(=O)Nc1ccc(-c2csc(N)n2)cc1)N(Cc1ccccc1)C(=O)OC(C)(C)C` [Example 17], for which the 50% effective concentration (EC50) is 7.6 µM in experiment [1] (setting [6]) and 55 nM in experiment [2] (setting [7]). This molecule also gave a half-inhibitory concentration (IC50) in experiment [3] (Group 1 Table 5 entries) of 110 nM.

For the molecule `CC(=O)Nc1nc(-c2ccc(NC(=O)CN(Cc3ccccc3)C(=O)c3ccncc3)cc2)cs1` [Example 19], the half-maximal effective concentration (EC50) in experiment [1] (setting [4]) was 28 µM; in experiment [2] (setting [5]), 9000 nM. Also, the IC50 in experiment [3] (Group 1 Table 3 entries) is above 50000 nM.

Take `CC(C)(C)C(=O)N[C@@H](Cc1ccccc1)C(=O)Nc1ccc(-c2csc(N)n2)cc1` [Example 20]: the figures for the 50% effective concentration (EC50) in experiment [1] (setting [6]) and in experiment [2] (setting [7]) were 10 µM and 600 nM, respectively. In experiment [3] (Group 1 Table 5 entries), this molecule returned a concentration for half-maximal inhibition (IC50) of 1300 nM.

What is called EC50 is the concentration giving half of the maximal effect. One may read the IC50 as the concentration that gives 50% inhibition. Read a high IC50 as lower potency.
